Measurements from ChEMBL document CHEMBL3507680, “University of Dundee, Gates Library screen for HepG2 cell viability”.

Assay: Human HepG2 cell viability assay in 384 well format
Assay type: toxicity, cell-based
Set-up: dose 125 nL, time 70.5 hour; concentration not given beside the values
Conditions: HepG2 cells, read-out: Inhibition

Compound | cytotoxicity at 70.5 h [%]
CC(C)NC(=O)C[C@@H]1CCNC[C@@H]1Cc1cc(-c2ccccc2)on1 | -1.73
CCNC(=O)N1CC[C@H]2CC(=O)N(C3CCCCC3)CC[C@H]2C1 | -5.33
Cn1nc(-c2cccs2)cc1[C@H]1CN2CC[C@H]1C[C@@H]2CN | -6.9
O[C@@H]1C[C@@H](c2nc(-c3ccc(F)cc3)no2)N(C2CCOCC2)C1 | -3.33
CC(C)(C)c1cc(C[C@H]2CNCC[C@H]2CC(=O)NCc2cccs2)no1 | -6.24
Cc1noc([C@@H]2C[C@H](NC(=O)NC3CCCCC3)CN2C)n1 | -7.54
Cc1noc([C@@H]2C[C@H](NC(=O)Nc3cccc(F)c3)CN2C)n1 | 6.23
Cc1ccc(N2C(=O)N[C@@H]3CCN(C(=O)C4CC4)[C@@H]3C2=O)cc1 | -15.3
O=C1N[C@@H]2CCN(C(=O)c3ccccc3)[C@@H]2C(=O)N1c1ccc(F)cc1 | -12.9
COC(=O)[C@@H]1CN(C(=O)Nc2ccccc2)CCN1C(C)=O | -7
COc1ccccc1-c1nnc([C@H]2CCN(C(=O)C3CC3)C2)o1 | 11.5
FC(F)(F)c1ccc(-c2c[nH]c([C@@H]3COCCN3)n2)cc1 | -16
Cc1cnccc1CN(C)C(=O)C(C)(C)NC(=O)c1cccs1 | 0.902
Cc1ccsc1[C@@H]1CCN(C(=O)Cn2cc3ccccc3n2)C[C@H]1O | 15.1
O=C(c1ccco1)N1CCC(n2cc(-c3ccsc3)nn2)CC1 | -5.81
Cc1ccc(CN2CCN(Cc3ccncc3)CC2=O)cc1 | -0.378
Cc1cc(F)ccc1N1CCC(N2C[C@@H](C)[C@@](C)(O)C2)CC1 | -5.91
COc1ccc(CN2C[C@@H](CN(C)C)[C@@H](CO)C2)cc1CN1CCCC1 | 5.87
Cc1noc(C)c1CN(C)c1nc(C2CCCC2)nc2c1cnn2C | 9.62
O=S1(=O)COCCN1CCCOc1ccc(F)cc1 | 22.1
CCCN1CCN(C(=O)c2ccnc(N)c2)[C@H]2CS(=O)(=O)C[C@H]21 | 2.28
CCN(Cc1cnn(C)c1)C(=O)c1ccc(C)c(N2CCNC2=O)c1 | -17.2

Compound | cytotoxicity at 70.5 h [%]
Cn1cc(C(=O)N2CC[C@@]3(O)CCN(C(=O)C4CCCC4)C[C@H]3C2)cn1 | -10.4
CCN1CC(C(=O)NCCc2csc(-c3ccncc3)n2)CCC1=O (centres undefined) | -5.21
Cc1nn(C)c2nc(NCCCN3CCCC(CO)C3)sc12 (centres undefined) | -9.15
CCOC(=O)C1(CCOC)CCCN(Cc2nccn2CC)C1 (centres undefined) | -18.3
CN(C)C(=O)c1cc(-c2cnc(N)nc2)nc2cc(F)ccc12 | -2.39
C[C@@H]1CN(Cc2cc3ccccc3n2C)CC[C@]1(C)O | 16.1
Cc1oc(-c2ccoc2)nc1CN1CCCCC1CCc1ccccc1 (centres undefined) | -2.03
CN(CCCc1cnn(C)c1)C(=O)C1CCC(=O)N(C2CCCC2)C1 (centres undefined) | -0.586
CC(C)(O)CCc1ccc(C(=O)N2CCN(CC3CCCC3)CC2)cc1 | 4.24
O=C(c1scc2c1OCCO2)N1CCOC(Cc2cccc(F)c2)C1 (centres undefined) | -5.83
Cc1c(-c2c(-c3ccccc3)ncn2[C@@H](C(=O)O)[C@H](C)O)cnn1C | 3.82
CS(=O)(=O)NCCC1CN(Cc2ccccc2F)CCO1 (centres undefined) | 0.792
CC1CCCCN1C1CN(c2nc(C3CCCC3)nc3c2cnn3C)C1 (centres undefined) | -3.67
CCn1cc(CN2CCN(C)C3(CCC(=O)N(CC4CC4)CC3)C2)cn1 (centres undefined) | 1.18
CN(C)CC1(O)CCCN(c2nc(-c3ccccc3)no2)CC1 (centres undefined) | -7.51
c1ccc(Cc2nc(CNC3CCOC4(CCOCC4)C3)no2)cc1 (centres undefined) | -13.7
CNc1ncc(CN(C)Cc2cc(O)c3cc(C)cc(C)c3n2)cn1 | -15.9
O=C(NCc1cccnc1-n1cncn1)C1CC2(CCNCC2)CN1 (centres undefined) | -4.56
CNCC(=O)N1CCCC(c2cccc(Nc3nc(C)cc(C)n3)n2)C1 (centres undefined) | 58.7
O=C(Cn1ccnc1)N1C[C@@H]2CC[C@H](Oc3ccccc3)[C@@H]2C1 | -3
Cc1nc(N)cc(C2CN(C(=O)c3ccn(C)n3)CCO2)n1 (centres undefined) | -11.7
CC(=O)N1CCC(C(=O)N(C)[C@@H]2CCC[C@@H](N3CCCC3)[C@@H]2O)CC1 | 41.3

Compound | cytotoxicity at 70.5 h [%]
COc1ccc(C2(NC(=O)CCn3cncn3)CCCCC2)cc1 | -6.29
O=C(c1ccccn1)N1CCc2c(nc(N3CCCC3)[nH]c2=O)C1 | -1.38
O=C(Cn1c(=O)n(Cc2ccco2)c2ncccc21)NC1CCCCC1 | 38.5
O=C(c1cccs1)N1CCC(Cn2nc(-c3ccco3)ccc2=O)CC1 | 8.96
O=C(Cc1ccsc1)N1CCC(n2nc(-c3ccco3)ccc2=O)CC1 | 1.25
O=C(c1cccs1)N1CCC(n2nc(-c3ccco3)ccc2=O)CC1 | 11.7
COc1cc2nc3n(c(=O)c2cc1OC)CCN(C)CC3 | 3.41
Cc1cc(-c2cnc(N3CCN(C)CC3)nc2-c2ccc(C)s2)on1 | 6.38
Cc1nccn1-c1cccc(C2CCCN(C3CCCCC3)C2)n1 (centres undefined) | 2.4
CN1CCCC(Cc2cncc(Br)c2)CC1 (centres undefined) | 0.975
CN1CCCC[C@@H]2[C@H]1[C@@H](c1ccccc1)CCN2C(=O)c1ccccc1 | 1.32
Cc1nc(O)c2nnn(C[C@H]3CCCN3C(=O)CCC3CCCC3)c2n1 | 5.57
Cc1nc(C2CCN(C(=O)c3ccc(=O)n(C)c3)CC2)c2sccn12 | 2.35
Fc1ccc(CCN2CCC(c3nnc(-c4cccnc4)o3)CC2)cc1 | 16.7
Cn1nc(C2CCCN(Cc3ccsc3)C2)c2nccnc21 (centres undefined) | -0.972
COc1cccc(N2CCN(CC(O)c3cc(C)sc3C)CC2)c1 (centres undefined) | -2.76
O=C(Cc1ccsc1)N1CCCC(c2n[nH]c3nccnc23)C1 (centres undefined) | 18.6
Cn1nc(C2CCCN(C(=O)Cc3ccsc3)C2)c2nccnc21 (centres undefined) | -9.48
Cc1cc2c(=O)n3c(nc2s1)CCN(Cc1ccncc1)CC3 | -13.5
OC1CCCN(Cc2c(-c3ccco3)[nH]c3ncccc23)C1 (centres undefined) | -4.41
Cc1ccc(=O)n(CC2(O)CCN(Cc3cnc(C)nc3)CC2)n1 | -10.4
CC(=O)N1CCCCC1c1cc(CO)[nH]n1 (centres undefined) | -18.5

Compound | cytotoxicity at 70.5 h [%]
Cc1cc2c(=O)n3c(nc2s1)CCN(C(=O)c1ccncc1)CC3 | -20
Cc1cccc2cc(CNCCCN3CCOCC3)c(=O)[nH]c12 | 33.6
CS(=O)(=O)N1CCC(C(=O)NC(Cc2ccsc2)c2ccccn2)CC1 (centres undefined) | -3.67
Cc1cc(C)c2cc(CNCC3CCCO3)c3nn(C)c(=O)n3c2c1 (centres undefined) | -6.37
C=Cn1ncc(CN2C[C@@H]3CCCN3C[C@@H]2Cc2ccccc2)c1C | -2.66
CC(=O)N1CCCC(Cc2cncc(Br)c2)CC1 (centres undefined) | 19.5
CC(C)N1CCC(Cc2cc(-c3cccc(C(=O)O)c3)ncn2)C1 (centres undefined) | -15
CCC(=O)N1CCCC1c1nccnc1Nc1ncccn1 (centres undefined) | -15
CN1CCCC(c2cccc(Cc3ccccc3Cl)n2)C1 (centres undefined) | -3.75
C=Cn1ncc(CN2C[C@@H]3CCCN3C[C@H]2CCSC)c1C | -12.3
Cc1cnccc1CN1CC[C@@](C)(O)[C@H](Oc2ccccc2)C1 | 22.4
Cc1ncsc1-c1nnc(C2CCN(Cc3ccc(F)cc3)CC2)o1 | 8.74
Cc1cnccc1CN1C[C@@H](O)[C@H](Oc2cccc(F)c2)C1 | -3.81
O=C(c1cnco1)N1CCCC(Cc2cccc3ncccc23)C1 (centres undefined) | -0.138
Cc1cc(Nc2nc(C)cs2)nc(C2CCCCN2CCO)n1 (centres undefined) | 32.4
CCc1cc(O)nc(C2CCCN2C(=O)c2cccnc2)n1 (centres undefined) | 20.7
Cc1ncsc1-c1nnc(C2CCN(CC3CCCCC3)CC2)o1 | -8.62
Cc1nccn1-c1cccc(C2CCCN(C(=O)c3cc[nH]n3)C2)n1 (centres undefined) | 24.4
CN(C)S(=O)(=O)N1CCCC(c2cccc(Cc3ccccc3)n2)C1 (centres undefined) | 19
Cc1csc(Nc2nccnc2C2CCCN2C(=O)C(C)C)n1 (centres undefined) | -18.2
COCC(=O)N1CCC(c2nccnc2Oc2cccnc2C)CC1 | -34
O=S(=O)(c1ccccc1)N1CCCCC1c1cc[nH]n1 (centres undefined) | 21.8

Compound | cytotoxicity at 70.5 h [%]
CNc1cc(C2CCCN2C(=O)c2ccc3oc(=O)n(C)c3c2)ccn1 (centres undefined) | -12.4
Cc1c[nH]nc1C1CCCCN1C(=O)Cn1cc(Cl)cn1 (centres undefined) | -15.8
CNc1cncc(C2CCCN2C(=O)c2ccc3oc(C)cc3c2)n1 (centres undefined) | -8.56
CNc1cncc(C2CCCN2Cc2c[nH]cn2)n1 (centres undefined) | -18.1
O=C(c1cc[nH]n1)N1CCCC(c2cccc(-n3ccnc3)n2)C1 (centres undefined) | -10.3
Cc1ccccc1-c1cncc(C2CCN(C(C)C)CC2)n1 | -22.4
O=C1NCC2(CCCN(Cc3ccc(Cl)s3)C2)Oc2ccccc21 (centres undefined) | -12.5
CO[C@@H]1CC[C@@H](N(C)C(=O)COc2ccc(F)cc2)[C@H]1O | -28.5
CNC(=O)c1ccc(C2CN(C(=O)COC)CCO2)nc1 (centres undefined) | -16.7
CNc1nc(C2CCCN2C(C)=O)nc2c1CCN(CC1CC1)C2 (centres undefined) | -13.7
CC(C)c1cc(C(=O)N(C)Cc2cccc3ncccc23)n(C)n1 | -3.18
CCCN(C(=O)COC)c1nc2c(s1)CCc1c-2cnn1C | 3.43
NC(=O)C1(CCCc2cccnc2)CCCN(c2ncccn2)C1 (centres undefined) | -13.9
NC[C@H]1CC[C@H](C(NC(=O)c2cccc(F)c2)c2ccccn2)CC1 (some centres undefined) | 41
c1nc(CCC2CCCN2)cc(N2CCCOCC2)n1 (centres undefined) | 9.03
Cn1nc(C2CCN(C(=O)Cc3cccc(F)c3)CC2)c2cccnc21 | -6.14
CCc1nc2ccccc2c(=O)n1CC1(O)CCN(S(C)(=O)=O)CC1 | -20.2
c1ccc(-c2ccc(C3CNCCO3)nc2)cc1 (centres undefined) | -19.9
Cc1cc(C[C@@H]2CCC[C@H]2NCc2ccccc2C(F)(F)F)on1 | -17.3
Cc1cc(C[C@@H]2COC[C@H]2NCc2ccccc2C(F)(F)F)on1 | -11
Cc1cc(C)nc(Nc2cc(C3CCCN(C)C3)nc(C)n2)n1 (centres undefined) | -27.7
